From ChEMBL document CHEMBL1151232, “First synthesis and determination of the absolute configuration of sulphostin, a novel inhibitor of dipeptidyl peptidase IV” (J Nat Prod, 2004) come the findings set out here.

Each structure is given as a SMILES string.

Test [1] addresses Dipeptidyl peptidase 4 (Rattus norvegicus) (UniProt P14740). As to conditions: 64 ng/ml.
Description: Inhibition of rat kidney DPP4 at 64 ng/ml
For test [2] the target is unchanged. As to conditions: 16 ng/ml.
Description: Inhibition of rat kidney DPP4 at 16 ng/ml
Test [3] shares this target. The following applies: 1 ng/ml.
Description: Inhibition of rat kidney DPP4 at 1 ng/ml
Test [4] has the same target. The following applies: 32 ng/ml.
Description: Inhibition of rat kidney DPP4 at 32 ng/ml
Test [5] shares this target. As to conditions: 4 ng/ml.
Description: Inhibition of rat kidney DPP4 at 4 ng/ml
Test [6] shares this target. As to conditions: 0.5 ng/ml.
Description: Inhibition of rat kidney DPP4 at 0.5 ng/ml
Test [7] shares this target. The following applies: 2 ng/ml.
Description: Inhibition of rat kidney DPP4 at 2 ng/ml
For test [8] the target is unchanged. The following applies: 8 ng/ml.
Description: Inhibition of rat kidney DPP4 at 8 ng/ml

Dipeptidyl peptidase 4 (Rattus norvegicus), sequence (P14740 whole entry, looked up): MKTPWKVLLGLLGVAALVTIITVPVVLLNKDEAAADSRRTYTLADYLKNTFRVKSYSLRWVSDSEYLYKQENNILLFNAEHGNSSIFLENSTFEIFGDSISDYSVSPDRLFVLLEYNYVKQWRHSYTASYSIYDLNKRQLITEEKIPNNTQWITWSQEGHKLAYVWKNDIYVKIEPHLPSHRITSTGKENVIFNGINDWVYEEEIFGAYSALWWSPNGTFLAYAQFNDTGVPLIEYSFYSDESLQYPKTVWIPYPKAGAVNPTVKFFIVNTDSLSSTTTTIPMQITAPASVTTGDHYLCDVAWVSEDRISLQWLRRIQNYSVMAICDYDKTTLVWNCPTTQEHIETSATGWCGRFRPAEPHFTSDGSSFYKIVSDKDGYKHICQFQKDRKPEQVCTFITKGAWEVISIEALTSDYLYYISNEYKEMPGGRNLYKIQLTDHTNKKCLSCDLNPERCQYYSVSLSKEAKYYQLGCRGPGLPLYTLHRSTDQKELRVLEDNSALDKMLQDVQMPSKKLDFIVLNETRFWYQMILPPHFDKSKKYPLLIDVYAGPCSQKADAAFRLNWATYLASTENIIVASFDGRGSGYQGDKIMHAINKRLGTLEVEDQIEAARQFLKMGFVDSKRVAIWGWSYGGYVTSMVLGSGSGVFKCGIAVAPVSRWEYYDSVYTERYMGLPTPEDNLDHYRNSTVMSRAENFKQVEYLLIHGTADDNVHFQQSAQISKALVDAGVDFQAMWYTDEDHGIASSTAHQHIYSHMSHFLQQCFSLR

As usually defined, the inhibition is the share of the control response that was lost under treatment. Higher therefore signals a strong effect. In the case of `N[C@H]1CCCN([P@@](N)(=O)NS(=O)(=O)O)C1=O`, the inhibition in test [1] was found to be 84.5%; in test [2], 66.9%; in test [3] it was 20.2%; in test [4] it was 77.4%; in test [5], 41.9%; in test [6], 15.9%. The results for the inhibition in test [7] and in test [8] were 30.6% and 54.4%, respectively.
